Columns and labels:
Assay type in all cases: functional
[1] = Cytotoxicity against human SKBR3 cells assessed as growth inhibition at 10 uM after 2 days by MTT assay; conditions: SK-BR-3, 48 h, read-out: GI
[2] = Cytotoxicity against human HCT116 cells assessed as growth inhibition at 100 uM after 2 days by MTT assay; conditions: HCT-116, 48 h, read-out: GI
[3] = Cytotoxicity against human SKBR3 cells assessed as growth inhibition at 100 uM after 2 days by MTT assay; conditions: SK-BR-3, 48 h, read-out: GI
[4] = Cytotoxicity against human HCT116 cells assessed as growth inhibition at 10 uM after 2 days by MTT assay; conditions: HCT-116, 48 h, read-out: GI

CNC(=O)c1cc(Oc2ccc(NC(=O)Nc3ccc(Cl)c(C(F)(F)F)c3)cc2)ccn1 [SORAFENIB]
inhibition of growth at 10 µM [1]: 48.9% | inhibition of growth at 100 µM [2]: 97.3% | inhibition of growth at 100 µM [3]: 93.1% | inhibition of growth at 10 µM [4]: 48.4%

— ChEMBL document CHEMBL3797052 (Eur J Med Chem, 2016)
